≈ marks a conversion by molar mass, not a printed value. Structures can show the parent of a compound that is named as a salt.
What was measured:
[1] = test system: Clostridium perfringens KYA 13123; test: microbe, parasite or virus in culture; assay type: cell-based; settings: KYA13123
S. faecalis 401 = test: In vitro antibacterial activity, MIC (clinical isolates); assay type: cell-based; settings: Enterococcus faecalis; S. faecalis 401; 10^6 cells/ml; clinical isolate; read-out: MIC
S. pneumoniae 3227 = test: as above; assay type: cell-based; settings: Streptococcus pneumoniae; S. pneumoniae 3227; 10^6 cells/ml; clinical isolate; read-out: MIC
[2] = test system: Bacteroides fragilis GM 7000; test: In vitro antibacterial activity, MIC (standard strain); assay type: cell-based; settings: GM7000; Bacteroides fragilis GM 7000; 10^6 cells/ml; standard strain; read-out: MIC
S. agalactiae 4049 = test: In vitro antibacterial activity, MIC (clinical isolates); assay type: cell-based; settings: Streptococcus agalactiae; S. agalactiae 4049; 10^6 cells/ml; clinical isolate; read-out: MIC
P. aeruginosa IID 1210 = test: In vitro antibacterial activity, MIC (standard strain); assay type: cell-based; settings: Pseudomonas aeruginosa, IID1210; P. aeruginosa IID 1210; 10^6 cells/ml; standard strain; read-out: MIC
[3] = test system: S. aureus IID 670 (Terajima); test: as above; assay type: cell-based, Staphylococcus aureus; settings: Staphylococcus aureus, IID670, S. aureus IID 670 (Terajima); 10^6 cells/ml; standard strain; read-out: MIC
S. agalactiae 4468 = test: In vitro antibacterial activity, MIC (clinical isolates); assay type: cell-based; settings: Streptococcus agalactiae; S. agalactiae 4468; 10^6 cells/ml; clinical isolate; read-out: MIC
E. coli ATCC 10536 = test: In vitro antibacterial activity, MIC (standard strain); assay type: cell-based; settings: Escherichia coli, ATCC10536; E. coli ATCC 10536; 10^6 cells/ml; standard strain; read-out: MIC
[4] = test system: Staphylococcus aureus 209 P; test: as above; assay type: cell-based; settings: Staphylococcus aureus 209 P; 10^6 cells/ml; standard strain; read-out: MIC
S. pneumoniae IID 552 = test: as above; assay type: cell-based; settings: Streptococcus pneumoniae, IID552; S. pneumoniae IID 552; 10^6 cells/ml; standard strain; read-out: MIC
[5] = test system: Enterobacter cloacae IID 977; test: as above; assay type: cell-based; settings: Enterobacter cloacae, IID977, Enterobacter cloacae IID 977; 10^6 cells/ml; standard strain; read-out: MIC
[6] = test system: Fusobacterium varium KYA 8501; test: as above; assay type: cell-based; settings: Fusobacterium varium, KYA8501, Fusobacterium varium KYA 8501; 10^6 cells/ml; standard strain; read-out: MIC
B. fragilis 0558 = test: as above; assay type: cell-based, Bacteroides fragilis; settings: Bacteroides fragilis, 0558, B. fragilis 0558; 10^6 cells/ml; standard strain; read-out: MIC
S. pyogenes IID 692 = test: as above; assay type: cell-based; settings: Streptococcus pyogenes, IID692; S. pyogenes IID 692; 10^6 cells/ml; standard strain; read-out: MIC
[7] = test system: Morganella morganii IID 602; test: as above; assay type: cell-based; settings: IID602; Morganella morganii IID 602; 10^6 cells/ml; standard strain; read-out: MIC
[8] = test system: Bacillus subtilis PCI 219; test: as above; assay type: cell-based; settings: PCI219; Bacillus subtilis PCI 219; 10^6 cells/ml; standard strain; read-out: MIC
[9] = test system: Salmonella entritidis IID 604; test: as above; assay type: cell-based; settings: IID604; Salmonella entritidis IID 604; 10^6 cells/ml; standard strain; read-out: MIC
M. pneumoniae Mac. = test: In vitro antibacterial activity against Mycoplasma, MIC; assay type: cell-based; settings: Mycoplasmoides pneumoniae, 120 h; M. pneumoniae Mac.; no visible growth after incubation for 5 days; read-out: MIC
Description: Experiment-3 In vitro antibacterial activity against Mycoplasma

[10] = test system: Streptococcus pyogenes S-8; test: In vitro antibacterial activity, MIC (standard strain); assay type: cell-based; settings: S8; Streptococcus pyogenes S-8; 10^6 cells/ml; standard strain; read-out: MIC
[11] = test system: Escherichia coli NIHJ JC-2; test: as above; assay type: cell-based; settings: Escherichia coli, NIHJJC2, Escherichia coli NIHJ JC-2; 10^6 cells/ml; standard strain; read-out: MIC
S. faecalis 402 = test: In vitro antibacterial activity, MIC (clinical isolates); assay type: cell-based; settings: Enterococcus faecalis; S. faecalis 402; 10^6 cells/ml; clinical isolate; read-out: MIC
[12] = test system: Pseudomonas aeruginosa V-1; test: In vitro antibacterial activity, MIC (standard strain); assay type: cell-based; settings: V1; Pseudomonas aeruginosa V-1; 10^6 cells/ml; standard strain; read-out: MIC
E. coli ML4707 = test: In vivo antibacterial activity against systemic infection in mice; set-up: species or system mice (ICR-S); settings: for ED50: Escherichia coli, ML4707, mice (ICR-S), oral, an hour after intraperitoneal infection, challenge dose 2.7 x 10^6 ~ 8.8 x 10^6 cfu/mouse, read-out: ED50 E. coli ML4707
Procedure: (§1) Experiment-2 In vivo antibacterial activity against systemic infection in mice (ICR-S)
(§2) The infections were produced by intraperitoneal injection of a suspension of the bacterial culture corresponding to the germ studied. The products were administered orally at an hour after the infection.

S. aureus Smith = test: as above; set-up: species or system mice (ICR-S); settings: Staphylococcus aureus, po, mice (ICR-S), an hour after intraperitoneal infection, challenge dose 6.0 x 10^5 cfu/mouse, read-out: ED50 S. aureus Smith
Procedure: as §1, §2

Shigella sonnei IID 969 = test: In vitro antibacterial activity, MIC (standard strain); assay type: cell-based; settings: IID969, 10^6 cells/ml
Procedure: Experiment-1 In vitro antibacterial activity
The in vitro antibacterial activity against gram-positive and gram-negative bacteria has been investivated.
The minimum inhibitory concentration (MIC) was determined in accordance with the method recommended by Japan Society of Chemotherapy.

P. mirabilis IID 994 = test: as above; assay type: cell-based; settings: Proteus mirabilis, IID994; P. mirabilis IID 994; 10^6 cells/ml; standard strain; read-out: MIC

Structure (SMILES) | MIC [1] [µg/mL] | MIC (S. faecalis 401) [µg/mL] | MIC (S. pneumoniae 3227) [µg/mL] | MIC [2] [µg/mL] | MIC (S. agalactiae 4049) [µg/mL] | MIC (P. aeruginosa IID 1210) [µg/mL] | MIC [3] [µg/mL] | MIC (S. agalactiae 4468) [µg/mL] | MIC (E. coli ATCC 10536) [µg/mL] | MIC [4] [µg/mL] | MIC (S. pneumoniae IID 552) [µg/mL] | MIC [5] [µg/mL] | MIC [6] [µg/mL] | MIC (B. fragilis 0558) [µg/mL] | MIC (S. pyogenes IID 692) [µg/mL] | MIC [7] [µg/mL] | MIC [8] [µg/mL] | MIC [9] [µg/mL] | MIC (M. pneumoniae Mac.) [µg/mL] | MIC [10] [µg/mL] | further results
CNCC1CCN(c2c(F)cc3c(=O)c(C(=O)O)cn(C4CC4)c3c2Cl)C1 (stereo not drawn) [Example 12, 8-Chloro-l-cyclopropyl-6-fluoro-1,4-dihydro-7-(3-methylaminomethyl-1-pyrrolidinyl)-4-oxo-3-quinolinecarboxylic acid hydrochloride] | 0.1 | 0.1 | 0.05 | 0.2 | 0.05 | 1.56 | 0.025 | 0.05 | 0.025 | 0.0125 | 0.05 | 0.05 | 0.39 | 0.1 | 0.05 | 0.1 | 0.0125 | 0.05 | 0.05 | 0.05 | MIC [11]: 0.025 µg/mL; MIC (S. faecalis 402): 0.1 µg/mL; MIC [12]: 0.39 µg/mL; ED50 (E. coli ML4707): 1.9 mg/kg; ED50 (S. aureus Smith): 0.5 mg/kg; MIC (Shigella sonnei IID 969): 0.025 µg/mL; MIC (P. mirabilis IID 994): 0.025 µg/mL
CCNCC1CCN(c2c(F)cc3c(=O)c(C(=O)O)cn(C4CC4)c3c2Cl)C1 (stereo not drawn) [Example 13, 8-Chloro-l-cyclorpropyl-6-fluoro-1,4-dihydro-7-(3-ethylaminomethyl-l-pyrrolidinyl)-4-oxo-3-quinolinecarboxylic acid] | 0.05 (≈ 0.123 µM) | 0.1 (≈ 0.245 µM) | 0.05 (≈ 0.123 µM) | 0.1 (≈ 0.245 µM) | 0.05 (≈ 0.123 µM) | 1.56 (≈ 3.82 µM) | 0.025 (≈ 0.0613 µM) | 0.05 (≈ 0.123 µM) | 0.025 (≈ 0.0613 µM) | 0.0125 (≈ 0.0306 µM) | 0.05 (≈ 0.123 µM) | 0.1 (≈ 0.245 µM) | 0.39 (≈ 0.956 µM) | 0.1 (≈ 0.245 µM) | 0.05 (≈ 0.123 µM) | 0.1 (≈ 0.245 µM) | 0.0125 (≈ 0.0306 µM) | 0.05 (≈ 0.123 µM) | 0.05 (≈ 0.123 µM) | 0.05 (≈ 0.123 µM) | MIC [11]: 0.0125 µg/mL (≈ 0.0306 µM); MIC (S. faecalis 402): 0.1 µg/mL (≈ 0.245 µM); MIC [12]: 0.78 µg/mL (≈ 1.91 µM); ED50 (E. coli ML4707): 0.7 mg/kg; activity against gram-negative bacterial infections compared with the reference compounds (E. coli ML4707; systemic infection in mice, result in words): greater activity against gram-negative bacterial infections than the reference compounds; ED50 (S. aureus Smith): 0.6 mg/kg; MIC (Shigella sonnei IID 969): 0.025 µg/mL (≈ 0.0613 µM); MIC (P. mirabilis IID 994): 0.05 µg/mL (≈ 0.123 µM)
CCNCC1CCN(c2c(F)cc3c(=O)c(C(=O)O)cn(CC)c3c2F)C1 (stereo not shown) [Ref.1, 1-Ethyl-7-(3-ethylaminomethyl-1-pyrrolidinyl)-6,8-difluoro-1,4-dihydro-4-oxo-3-quinolinecarboxylic acid, reference compound] | 1.56 (≈ 4.11 µM) | 0.39 (≈ 1.03 µM) | 0.39 (≈ 1.03 µM) | 12.5 (≈ 32.9 µM) | 0.39 (≈ 1.03 µM) | 12.5 (≈ 32.9 µM) | 0.1 (≈ 0.264 µM) | 0.39 (≈ 1.03 µM) | 0.1 (≈ 0.264 µM) | 0.05 (≈ 0.132 µM) | 0.2 (≈ 0.527 µM) | 0.2 (≈ 0.527 µM) | 6.25 (≈ 16.5 µM) | 6.25 (≈ 16.5 µM) | 0.39 (≈ 1.03 µM) | 0.78 (≈ 2.06 µM) | 0.05 (≈ 0.132 µM) | 0.39 (≈ 1.03 µM) | 0.39 (≈ 1.03 µM) | 0.2 (≈ 0.527 µM) | MIC [11]: 0.1 µg/mL (≈ 0.264 µM); MIC (S. faecalis 402): 0.78 µg/mL (≈ 2.06 µM); MIC [12]: 6.25 µg/mL (≈ 16.5 µM); ED50 (E. coli ML4707): > 10 mg/kg; ED50 (S. aureus Smith): 5 mg/kg; MIC (Shigella sonnei IID 969): 0.1 µg/mL (≈ 0.264 µM); MIC (P. mirabilis IID 994): 0.2 µg/mL (≈ 0.527 µM)
